Data: ChEMBL document CHEMBL1137031, “Synthesis and antibacterial activity of C-6 carbamate ketolides, a novel series of orally active ketolide antibiotics” (2004)
Values after ≈ are worked out from the molar mass of the structure shown.

Tests used:
Staphylococcus aureus [1] = experiment: Minimum inhibitory concentration against Staphylococcus aureus OC4172 in presence of mouse serum; assay type: functional
Staphylococcus aureus [2] = experiment: Minimum inhibitory concentration against Staphylococcus aureus OC4172; assay type: functional
Mus musculus [3] = experiment: Percent survival of Staphylococcus aureus infected murine was tested after peroral injection of 20 mg/kg dose; assay type: functional; conditions: route oral
Mus musculus [4] = experiment: Percent survival of Staphylococcus aureus infected murine was tested after subcutaneous injection of 10 mg/kg dose; assay type: functional; conditions: sc
Haemophilus influenzae = experiment: Minimum inhibitory concentration against Haemophilus influenzae OC4482
Streptococcus pneumoniae [5] = experiment: Minimum inhibitory concentration against Streptococcus pneumoniae OC4051
Streptococcus pneumoniae [6] = experiment: Minimum inhibitory concentration against Streptococcus pneumoniae OC4421
Streptococcus pneumoniae [7] = experiment: Minimum inhibitory concentration against Streptococcus pneumoniae OC9132
[8] = system: Staphylococcus haemolyticus; experiment: Minimum inhibitory concentration against Staphylococcus haemolyticus OC3882
[9] = system: Staphylococcus haemolyticus; experiment: Minimum inhibitory concentration against Staphylococcus haemolyticus OC4545
Mus musculus [10] = experiment: Effective dose against Staphylococcus aureus infected murine was tested after subcutaneous injection; assay type: functional; conditions: sc
Mus musculus [11] = species on record: Mus musculus; experiment: Effective dose against Staphylococcus aureus infected murine was tested after peroral injection; assay type: functional

Compound | MIC (Staphylococcus aureus [1]) [µg/mL] | MIC (Staphylococcus aureus [2]) [µg/mL] | survival at 20 mg/kg (Mus musculus [3]) [%] | survival at 10 mg/kg (Mus musculus [4]) [%] | MIC (Haemophilus influenzae) [µg/mL] | MIC (Streptococcus pneumoniae [5]) [µg/mL] | MIC (Streptococcus pneumoniae [6]) [µg/mL] | MIC (Streptococcus pneumoniae [7]) [µg/mL] | MIC [8] [µg/mL] | MIC [9] [µg/mL] | ED50 (Mus musculus [10]) [mg/kg] | ED50 (Mus musculus [11]) [mg/kg]
CC[C@H]1OC(=O)C(C)C(=O)[C@H](C)[C@@H](O[C@@H]2O[C@H](C)C[C@H](N(C)C)[C@H]2O)[C@](C)(OC(=O)N/C=C/c2ccc(-c3ccccn3)cc2)C[C@@H](C)C(=O)[C@H](C)[C@H]2NC(=O)O[C@@]21C (some centres not stated) | 0.5 | 0.12 (≈ 0.146 µM) | 20 | 80 | 4 (≈ 4.87 µM) | 0.06 (≈ 0.0731 µM) | 0.06 (≈ 0.0731 µM) | 0.03 (≈ 0.0365 µM) | 0.12 (≈ 0.146 µM) | > 16 |  | 
CC[C@H]1OC(=O)C(C)C(=O)[C@H](C)[C@@H](O[C@@H]2O[C@H](C)C[C@H](N(C)C)[C@H]2O)[C@](C)(OC(=O)N/C=C/c2ccc(-c3ccccc3)cc2)C[C@@H](C)C(=O)[C@H](C)[C@H]2NC(=O)O[C@@]21C (some centres not stated) | 2 | 0.5 (≈ 0.61 µM) |  |  | 8 (≈ 9.76 µM) | 0.5 (≈ 0.61 µM) | 0.25 (≈ 0.305 µM) | 0.06 (≈ 0.0732 µM) | 1 (≈ 1.22 µM) | > 16 |  | 
CC[C@H]1OC(=O)C(C)C(=O)[C@H](C)[C@@H](O[C@@H]2O[C@H](C)C[C@H](N(C)C)[C@H]2O)[C@](C)(OC(=O)N/C=C/c2ccc3ccccc3n2)C[C@@H](C)C(=O)[C@H](C)[C@H]2NC(=O)O[C@@]21C (some centres not stated) | 0.5 | 0.25 (≈ 0.314 µM) | 25 | 75 | 4 (≈ 5.03 µM) | 0.03 (≈ 0.0377 µM) | 0.06 (≈ 0.0755 µM) | ≤ 0.01 | 0.25 (≈ 0.314 µM) | > 16 |  | 
CC[C@H]1OC(=O)C(C)C(=O)[C@H](C)[C@@H](O[C@@H]2O[C@H](C)C[C@H](N(C)C)[C@H]2O)[C@](C)(OC(N)=O)C[C@@H](C)C(=O)[C@H](C)[C@H]2NC(=O)O[C@@]21C (some centres not stated) | 1 | 4 (≈ 6.23 µM) |  |  | 2 (≈ 3.12 µM) | > 16 | 2 (≈ 3.12 µM) | 2 (≈ 3.12 µM) | > 16 | > 16 |  | 
CC[C@H]1OC(=O)C(C)C(=O)[C@H](C)[C@@H](O[C@@H]2O[C@H](C)C[C@H](N(C)C)[C@H]2O)[C@](C)(OC(=O)N/C=C/c2ccc3cccnc3c2)C[C@@H](C)C(=O)[C@H](C)[C@H]2NC(=O)O[C@@]21C (some centres not stated) | 0.5 | 0.12 (≈ 0.151 µM) | 0 | 40 | 2 (≈ 2.52 µM) | 0.03 (≈ 0.0377 µM) | 0.03 (≈ 0.0377 µM) | ≤ 0.01 | 0.25 (≈ 0.314 µM) | > 16 |  | 
CC[C@H]1OC(=O)C(C)C(=O)[C@H](C)[C@@H](O[C@@H]2O[C@H](C)C[C@H](N(C)C)[C@H]2O)[C@](C)(OC(=O)NCCc2ccccc2)C[C@@H](C)C(=O)[C@H](C)[C@H]2NC(=O)O[C@@]21C (some centres not stated) | 2 | 1 (≈ 1.34 µM) |  |  | 8 (≈ 10.7 µM) | 2 (≈ 2.68 µM) | 0.12 (≈ 0.161 µM) | 0.25 (≈ 0.335 µM) | 4 (≈ 5.36 µM) | > 16 |  | 
CC[C@H]1OC(=O)C(C)C(=O)[C@H](C)[C@@H](O[C@@H]2O[C@H](C)C[C@H](N(C)C)[C@H]2O)[C@](C)(OC(=O)NCCCc2ccccc2)C[C@@H](C)C(=O)[C@H](C)[C@H]2NC(=O)O[C@@]21C (some centres not stated) | 8 | 2 (≈ 2.63 µM) |  |  | 16 (≈ 21.1 µM) | 1 (≈ 1.32 µM) | 0.12 (≈ 0.158 µM) | 0.06 (≈ 0.079 µM) | 2 (≈ 2.63 µM) | > 16 |  | 
CC[C@H]1OC(=O)C(C)C(=O)[C@H](C)[C@@H](O[C@@H]2O[C@H](C)C[C@H](N(C)C)[C@H]2O)[C@](C)(OC(=O)N/C=C/c2ccc(-n3ccnc3)cc2)C[C@@H](C)C(=O)[C@H](C)[C@H]2NC(=O)O[C@@]21C (some centres not stated) | 0.25 | 0.12 (≈ 0.148 µM) | 0 | 60 | 4 (≈ 4.94 µM) | 0.12 (≈ 0.148 µM) | 0.25 (≈ 0.309 µM) | ≤ 0.01 | 1 (≈ 1.23 µM) | > 16 |  | 
CC[C@H]1OC(=O)C(C)C(=O)[C@H](C)[C@@H](O[C@@H]2O[C@H](C)C[C@H](N(C)C)[C@H]2O)[C@](C)(OC(=O)NCc2ccccc2)C[C@@H](C)C(=O)[C@H](C)[C@H]2NC(=O)O[C@@]21C (some centres not stated) | 8 | 4 (≈ 5.47 µM) |  |  | 16 (≈ 21.9 µM) | 8 (≈ 10.9 µM) | 0.25 (≈ 0.342 µM) | 1 (≈ 1.37 µM) | > 16 | > 16 |  | 
CC[C@H]1OC(=O)C(C)C(=O)[C@H](C)[C@@H](O[C@@H]2O[C@H](C)C[C@H](N(C)C)[C@H]2O)[C@](C)(OC(=O)N/C=C/c2ccc(-c3ccncc3)cc2)C[C@@H](C)C(=O)[C@H](C)[C@H]2NC(=O)O[C@@]21C (some centres not stated) | 2 | 0.5 (≈ 0.609 µM) |  |  | 8 (≈ 9.74 µM) | 0.5 (≈ 0.609 µM) | 0.12 (≈ 0.146 µM) | 0.03 (≈ 0.0365 µM) | 2 (≈ 2.44 µM) | > 16 |  | 
CC[C@H]1OC(=O)C(C)C(=O)[C@H](C)[C@@H](O[C@@H]2O[C@H](C)C[C@H](N(C)C)[C@H]2O)[C@](C)(OC(=O)N/C=C/c2ccc(-c3ncccn3)cc2)C[C@@H](C)C(=O)[C@H](C)[C@H]2NC(=O)O[C@@]21C (some centres not stated) | 0.25 | 0.12 (≈ 0.146 µM) | 40 | 100 | 4 (≈ 4.87 µM) | 0.06 (≈ 0.073 µM) | 0.06 (≈ 0.073 µM) | 0.03 (≈ 0.0365 µM) | 0.12 (≈ 0.146 µM) | > 16 | 1.8 | 15
CC[C@H]1OC(=O)C(C)C(=O)[C@H](C)[C@@H](O[C@@H]2O[C@H](C)C[C@H](N(C)C)[C@H]2O)[C@](C)(OC(=O)Nc2ccccc2)C[C@@H](C)C(=O)[C@H](C)[C@H]2NC(=O)O[C@@]21C (some centres not stated) | 1 | 2 (≈ 2.79 µM) |  |  | 8 (≈ 11.1 µM) | 8 (≈ 11.1 µM) | 0.06 (≈ 0.0836 µM) | 0.03 (≈ 0.0418 µM) | > 16 | > 16 |  | 
CC[C@H]1OC(=O)C(C)C(=O)[C@H](C)[C@@H](O[C@@H]2O[C@H](C)C[C@H](N(C)C)[C@H]2O)[C@](C)(OC(=O)N/C=C/c2ccccc2)C[C@@H](C)C(=O)[C@H](C)[C@H]2NC(=O)O[C@@]21C (some centres not stated) | 2 | 0.25 (≈ 0.336 µM) |  |  | 4 (≈ 5.38 µM) | 0.5 (≈ 0.672 µM) | 0.06 (≈ 0.0807 µM) | 0.06 (≈ 0.0807 µM) | 4 (≈ 5.38 µM) | > 16 |  | 
CC[C@H]1OC(=O)C(C)C(=O)[C@H](C)[C@@H](O[C@@H]2O[C@H](C)C[C@H](N(C)C)[C@H]2O)[C@](C)(OC(=O)N/C=C/c2ccc(-c3cccnc3)cc2)C[C@@H](C)C(=O)[C@H](C)[C@H]2NC(=O)O[C@@]21C (some centres not stated) | 1 | 0.25 (≈ 0.305 µM) |  |  | 4 (≈ 4.87 µM) | 0.12 (≈ 0.146 µM) | 0.25 (≈ 0.305 µM) | 0.03 (≈ 0.0365 µM) | 1 (≈ 1.22 µM) | > 16 |  | 
CC[C@H]1OC(=O)[C@H](C)[C@@H](O[C@H]2C[C@@](C)(OC)[C@@H](O)[C@H](C)O2)[C@H](C)[C@@H](O[C@@H]2O[C@H](C)C[C@H](N(C)C)[C@H]2O)[C@](C)(O)C[C@@H](C)C(=O)[C@H](C)[C@@H](O)[C@]1(C)O [ERYTHROMYCIN] | 0.06 | 0.5 (≈ 0.681 µM) |  |  | 4 (≈ 5.45 µM) | > 16 | 4 (≈ 5.45 µM) | 0.06 (≈ 0.0818 µM) | > 16 | > 16 |  | 
CC[C@H]1OC(=O)[C@H](C)C(=O)[C@H](C)[C@@H](O[C@@H]2O[C@H](C)C[C@H](N(C)C)[C@H]2O)[C@](C)(OC)C[C@@H](C)C(=O)[C@H](C)[C@H]2N(CCCCn3cnc(-c4cccnc4)c3)C(=O)O[C@]12C [TELITHROMYCIN] | 0.5 | 0.12 (≈ 0.148 µM) |  |  | 2 (≈ 2.46 µM) | 0.06 (≈ 0.0739 µM) | 0.12 (≈ 0.148 µM) | ≤ 0.01 | 0.25 (≈ 0.308 µM) | > 16 | 4.4 | 15
